Measured values as given in a melting point compilation (Tetko et al.; mined from patent text by program, amines drawn as free bases though some values may be those of a salt).

First: CC(=O)CCN1C[C@H]2Cc3ccccc3[C@H](c3ccccc3)[C@H]2C1 (racemic)
Second: O=C(Nc1ccc(C(=O)N2CCCc3ccccc32)cc1)c1ccccc1
The melting point of the first is lower: 121 to 124 °C for the first, 202 to 204 °C for the second.

First: C=CCOc1ccccc1OCC(O)CNCCOc1ccc(O)c(C(N)=O)c1 (stereo not given)
Second: CNC(=O)N(Cc1ccc(OCCc2nc(-c3ccccc3)oc2C)cc1)OC(=O)OC
The melting point of the first is higher: 147 to 148 °C for the first, 134 to 135 °C for the second.

Compared with `CC(O)c1cc2c(cn1)CCCC2` (stereo not given), `NCC1Cc2c(ccc3c2CCCC3)O1` (stereo not given) is higher in melting point: 44 to 45 °C for the first, greater than 225 °C for the second.

First: CCCc1c(OCc2ccc(C=CC(=O)O)c(OC)c2)ccc(C(C)=O)c1O
Second: CC(C)(C)OC(=O)NCc1cccc(C=CC(=O)O)c1
The melting point of the first is higher: 214 to 216 °C for the first, 121 to 123 °C for the second.

First: CCCOC(C)c1ccc2[nH]c3cnc(C(=O)OCC)c(COC)c3c2c1 (stereo not given)
Second: CCOCCNC(=O)COc1ccn2nc(-c3ccccc3)c(-c3ccc(=O)n(C(C)C)n3)c2c1
The melting point of the first is higher: 189 to 190 °C for the first, 126 to 128 °C for the second.

First: CCCSc1ccccc1S(N)(=O)=O
Second: CCON=C(C)c1cccc(S(N)(=O)=O)c1
The melting point of the first is lower: 58 to 64 °C for the first, 157 to 158 °C for the second.

First: Nc1ccc2c(c1N)CN(Cc1ccc(C(F)(F)F)cc1)CC2
Second: O=C(O)[C@H](Cc1ccc(C(F)(F)F)cc1)[C@@H](O)c1ccoc1 (racemic)
The melting point of the first is higher: 130 to 135 °C for the first, 104 to 105 °C for the second.

Compared with `Cc1ccc(-c2cc(C(F)(F)F)nn2-c2ccc(S(=O)(=O)NOC(C)C(=O)O)cc2)cc1` (single isomer, unassigned; (-)), `Cc1ccc(S(=O)(=O)CNc2ccc(C(F)(F)F)cc2)cc1` is lower in melting point: 158 to 160 °C for the first, 135 °C for the second.

First: Cc1ccc(C2(O)CCNCC2)cc1
Second: Cc1ccc(S(=O)(=O)Nc2ccc(Cl)cc2[N+](=O)[O-])cc1
The melting point of the first is higher: 137 to 138 °C for the first, 110 to 111 °C for the second.

`CNC(=O)c1c(NC(=O)c2cc(C(F)(F)F)nn2-c2ncccc2Cl)ccc2cn[nH]c12` and `CNC(=O)c1ccccc1Nc1nc(Nc2ccc3c(c2)CCN(C[C@@H](O)C(F)(F)F)CC3)ncc1Cl` cannot be ordered by melting point: 190 to 192 °C for the first, 188 to 191 °C for the second.

First: CC(C)[C@H](NC(=O)N(C)Cc1csc(NC(=O)OC(C)(C)C)n1)C(=O)N[C@@H](Cc1ccccc1)[C@@H](O)C[C@H](Cc1ccccc1)NC(=O)OCc1cccnc1
Second: CC(C)(C)OC(=O)NN(Cc1ccc(Cl)cc1)C(=O)OCC1c2ccccc2-c2ccccc21
The melting point of the first is higher: 95 to 98 °C for the first, 53 to 55 °C for the second.

First: CCCCNC(=O)CC(F)=C(F)F
Second: C/C=C1\NC(=O)N(CCCC)C1=O
The melting point of the first is lower: 34 to 36 °C for the first, 127 °C for the second.

First: N#Cc1ncc(F)cc1OC1SCC(O)C(O)C1O (stereo not given)
Second: CC(=O)NC[C@H]1CN(c2ccc(N3CCC(O)(C#N)CC3)c(F)c2)C(=O)O1
The melting point of the first is lower: 94 °C for the first, 99 to 100 °C for the second.

First: Cc1cc(C(N)=O)ncc1C(c1c(F)ccc(F)c1F)S(=O)(=O)CCC(C)(C)C (stereo not given)
Second: CCc1cc(C)c2c(-c3cccc(Cl)c3)cc(=S)n(C)c2n1
The melting point of the first is higher: 143 to 144 °C for the first, 131 to 133 °C for the second.

First: Cn1ncc2c(=O)n3c(nc21)SC(C(=O)O)C3 (stereo not given)
Second: COc1ccc(CN2CC(C(=O)O)CC2=O)cc1OC (stereo not given)
The melting point of the first is higher: 274 to 276 °C for the first, 176 to 178 °C for the second.

Compared with `Oc1nsnc1-c1c(Cl)cccc1Cl`, `COc1cc([N+](=O)[O-])c2nccc(C)c2c1Cl` is lower in melting point: 194 to 195 °C for the first, 167 to 169 °C for the second.

First: CC(C)(C)c1cc(NC(=O)NNC(=O)c2ccc([N+](=O)[O-])cc2)cc(C(C)(C)C)c1O
Second: CCOC(=O)N(O)C(C)c1cc(C(C)(C)C)c(O)c(C(C)(C)C)c1 (stereo not given)
The melting point of the first is higher: 163 to 164 °C for the first, 130 to 132 °C for the second.

Compared with `Nc1ccc(S(=O)(=O)c2cc(C3CC3)nc(N3CCCC3)c2)cc1`, `Cc1cc(C)nc(NC(=O)NS(=O)(=O)N2CCCC2)n1` is lower in melting point: 216 to 218 °C for the first, 180 to 181 °C for the second.

First: O=C(O)COC1=C(Cc2ccc3c(Br)cccc3c2)C(=O)CCC1
Second: CCCOc1ccc(CCCOc2ccc3c(c2)C=C(C(=O)O)CCS3(=O)=O)cc1
The melting point of the first is higher: 234 to 236 °C for the first, 168 to 170 °C for the second.

Compared with `CC(C(N)=O)c1cccc2c1Oc1ccccc1CC2=O` (stereo not given), `CC(C)c1cccc(COCCCn2ccnc2)c1NC(=O)CC1c2ccccc2Oc2ccccc21` is lower in melting point: 177 to 178 °C for the first, 131 to 132 °C for the second.

Compared with `CCN(CC)C(=O)N1SN(C(C)C)C(=O)c2ccccc21`, `CCN(CC)C(=O)c1c(C=O)ccnc1OC` is lower in melting point: 103 to 104 °C for the first, less than 50 °C for the second.

Compared with `CC(=O)C1=C(CS(=O)c2ccccc2)CC2C3CCC4=CC(=O)CCC4(C)C3=CCC12C` (stereo not given), `O=C1CC(c2ccc(OCc3ccccc3)cc2)=Nc2ccc(N3CCOCC3)cc21` is higher in melting point: 160 to 163 °C for the first, 320 to 323 °C for the second.

First: O=C(O)CCCCCCCCCCC(=O)Nc1ccccc1OCCCC(=O)O
Second: O=C(C=Cc1ccc(S(=O)(=O)Nc2ccccc2)cc1)NO
The melting point of the first is lower: 128 to 130 °C for the first, 176 to 178 °C for the second.

First: CC(C)(COc1nn2ccnc2c2c1CCCC2)CS(N)(=O)=O
Second: CC1(C)Oc2cc(Br)sc2C(N2CCCC2=O)C1O (stereo not given)
The melting point of the first is higher: 198 to 200 °C for the first, 162 to 165 °C for the second.

First: COc1ccc(-c2csc(CO)c2)cc1
Second: COc1ccc(C(O)(Cc2ccccc2)c2ccccc2)cc1 (stereo not given)
The melting point of the first is higher: 136 to 138 °C for the first, 111 to 112 °C for the second.

Compared with `COc1cc2c(-c3ccnc(NN)c3)c(CO)c(CO)cc2cc1OCc1ccccc1`, `COC(=O)c1cc(-c2nc(COc3ccc(COc4nn(-c5ccccc5)cc4C=O)cc3OC)c(C)o2)ccc1OS(C)(=O)=O` is lower in melting point: 155 to 157 °C for the first, 136 to 137 °C for the second.

Compared with `COC(=O)c1nccnc1Br`, `CCOC(=O)c1cn2c3c(cc(Br)cc3c1=O)CC2(C)C` is higher in melting point: 43 to 45 °C for the first, 227 to 228 °C for the second.

First: N#Cc1ccc(-c2cc3c(n2-c2ccc(O)c(C(=O)O)c2)CCCC3)cc1
Second: Fc1ccc(-c2[nH]c(C3CCCNC3)nc2-c2ccncc2)cc1 (stereo not given)
The melting point of the first is lower: 242 to 244 °C for the first, 252 to 254 °C for the second.

Compared with `CCN(C(=O)c1cc(C(C)(C)C)c(OC(=O)c2cc(C(C)(C)C)c(O)c(C(C)(C)C)c2)c(C(C)(C)C)c1)c1ccc(C)cc1`, `CC(=O)OC1(c2ccc3c(c2)OCO3)C(=O)N(Cc2ccc(Cl)cc2)c2ccccc21` (stereo not given) is lower in melting point: 214 to 216 °C for the first, 146 to 148 °C for the second.

First: CS(=O)(=O)OCCOc1cc([N+](=O)[O-])ccc1N
Second: CCN(CC)C1=NS(=O)(=O)c2cccc(OC(F)F)c21
The melting point of the first is higher: 132 to 135 °C for the first, 93 to 94 °C for the second.

Compared with `O=C(O)c1c(Cl)c(Cl)c(Cl)c(Cl)c1C(=O)Nc1ccc(S(=O)(=O)C(F)(F)F)cc1`, `CCOP(=O)(CC(=O)Nc1cc2c(Nc3ccc(Cl)c(Cl)c3)ncnc2cn1)OCC` is higher in melting point: 92 to 97 °C for the first, 121 to 124 °C for the second.

Compared with `CC(C)Cn1c2c(c(=O)n(C)c1=O)C(=O)C(=Cc1cccnc1)S2`, `C#CCN1N=C(c2ccc(Cl)cc2)CN(C)C1=O` is lower in melting point: 215 to 216 °C for the first, 159 to 160 °C for the second.

First: COC(=O)c1sc2c(c1O)CN(C(=O)OC(C)(C)C)CC2
Second: CC(=O)c1ccc(F)c(N(C)C(C)=O)c1
The melting point of the first is higher: 84.5 to 86 °C for the first, 75.5 to 76.5 °C for the second.

First: Cc1cccc(C)c1NC(=S)C1(C)CCc2c(C)c(O)c(C)c(C)c2O1 (stereo not given)
Second: CC(C)c1nc(COCc2ccccc2)n(CCO)c1Sc1cc(Cl)cc(Cl)c1
The melting point of the first is higher: 122 to 123 °C for the first, 78 to 80 °C for the second.

Compared with `FC(F)(F)C(F)(F)C(F)(F)C(F)(F)C(F)(F)C(F)(F)C(F)(F)C(F)(F)C(F)(F)Br`, `COc1ccc(C2(C34CC5CC(CC(C5)C3)C4)N=C(N)N(C)C2=O)cc1OC` (stereo not given) is higher in melting point: 30 °C for the first, 130 °C for the second.
